# Read-outs that look alike come from different tables or passages of the source.
# Assays:
# [1] = HPLC pharmacokinetics of secondary metabolites in serum/plasma, liver and urine of mice after oral Sechium H387 07 extract; design: species or system female CD-1 mice (Mus musculus L.)
# Protocol: Pharmacokinetic parameters were evaluated in female CD-1 mice (Mus musculus L.) provided by the vivarium of the Faculty of Higher Studies, Zaragoza, National Autonomous University of Mexico. All mice were clinically healthy, approximately 12 weeks old, and weighed ~30 g. […] Female mice were selected as the available cohort from the institutional vivarium, and their use allowed us to establish baseline pharmacokinetic parameters under standardized conditions. […] Animals were randomly assigned to treatment groups. Treatment allocation and sample collection were blinded. All experimental procedures were approved by the Research Ethics Committee of the Faculty of Higher Studies, Zaragoza (FESZ/CEI/1/1/5/27/23).
# For the HPLC quantification of metabolites, concentrations were expressed as µg/mL for serum and urine and as µg/mg of tissue for liver samples. The results were translated into graphical form using the identified metabolites. The Cmax and time to reach maximum concentration (Tmax) of the secondary metabolites were obtained directly from the concentration–time curve.
# The area under the plasma concentration–time curve from time zero to the last measurable concentration ( AUC0−t ) was calculated using the linear trapezoidal rule, according to the following formula: AUC0−t=∑i=1n−1Ci+Ci+1/2×ti+1−ti where Ci and Ci+1 are the plasma concentrations at consecutive time points ti and ti+1 . The total area under the curve ( AUC0−∞ ) was obtained as the sum of AUC0−t and the extrapolated area from the last measurable concentration to infinity, calculated as:(1) AUC0−∞=AUC0−t+Clast/kel where Clast is the final observed concentration and kel is the terminal final elimination constant estimated from the slope of the log-linear portion of the concentration–time curve.
# [2] = cited from earlier work
# [3] = cited from earlier work; remark: listed apart in the source
# [4] = mice, liver, oral extract 8, 125, 250 mg/kg, 1, 6, 24, 48 h
# [5] = mice, serum, oral extract 8, 125, 250 mg/kg, 1, 6, 24, 48 h
# [6] = female, CD-1, mouse, in vivo, po, 8 mg/kg
# [7] = mice, oral extract 8, 125, 250 mg/kg, 1, 6, 24, 48 h
# [8] = mice, plasma, oral extract 8 mg/kg
compound,measurement,setting,value
"CC(C)(O)/C=C/C(=O)[C@](C)(O)[C@H]1[C@H](O)C[C@@]2(C)[C@@H]3CC=C4[C@@H](C=C(O)C(=O)C4(C)C)[C@]3(C)C(=O)C[C@]12C [CuI, cucurbitacin I]","liver concentration, change with dose and time",[1]; [4],no significant variations
same,liver concentration,"[1]; mice, liver, oral extract 125 and 250 mg/kg",> 20 µg/mg
same,"serum concentration, change with dose and time",[1]; [5],concentrations remained near the limit of quantification
C[C@@H]1O[C@@H](OC[C@H]2O[C@@H](Oc3c(-c4ccc(O)c(O)c4)oc4cc(O)cc(O)c4c3=O)[C@H](O)[C@@H](O)[C@@H]2O)[C@H](O)[C@H](O)[C@H]1O [Rutin],"serum concentration, change with dose and time",[1]; [5],marked decrease at the 250 mg/kg dose
O=c1cc(-c2ccc(O)cc2)oc2cc(O)cc(O)c12 [Apigenin],AUC,[1]; [6],2390 ± 210 ng·h/mL
same,AUC(0-t),[1]; [6],2120 ng·h/mL
same,Clearance,[1]; [6],13.7 mL/min/kg
same,Cmax,[1]; [6],850 ± 70 ng/mL
same,T1/2,[1]; [6],greater than 5.6 h
same,Vd,[1]; [6],3.4 ± 0.5 L/kg
same,half-life,"[1]; female, CD-1, mouse, in vivo, po, 8 mg/kg, T1/2",5.6 ± 0.3 h
same,Tmax,"[1]; female, CD-1, mouse, in vivo, po, 8 mg/kg, Tmax",1.5 ± 0.3 h
same,"serum concentration, change with dose and time",[1]; [5],significantly increased with the 125 mg/kg doses at 24 and 48 h
same,T1/2,[2]; reported in rats,1.8 to 4.2 h
"CC(=O)OC(C)(C)CCC(=O)[C@](C)(O)[C@H]1[C@H](O)C[C@@]2(C)[C@@H]3CC=C4[C@@H](C[C@H](O)[C@@H](O)C4(C)C)[C@]3(C)C(=O)C[C@]12C [CuIIA, cucurbitacin IIA]","liver concentration, change with dose and time",[1]; [4],remained significant for up to 48 h with the 250 mg/kg treatment
same,serum Tmax,"[1]; mice, serum, across all doses (8, 125, 250 mg/kg)",24 h
same,"serum concentration, change with dose and time",[1]; [5],"transient decrease to near-zero concentrations at 6 h, followed by a marked increase at 24 h"
same,"urine concentration, change with dose and time",[1]; [7],high concentrations were observed in urine
same,time of absorption (Tmax) in previous reports,[3],~ 20 min
"CC(C)(O)/C=C/C(=O)[C@](C)(O)[C@H]1[C@H](O)C[C@@]2(C)[C@@H]3CC=C4[C@@H](C[C@H](O)C(=O)C4(C)C)[C@]3(C)C(=O)C[C@]12C [CuD, Cucurbitacin D]",Tmax,"[1]; female, CD-1, mouse, in vivo, mice, serum/plasma, oral extract 125 mg/kg, read-out: Tmax",24 h
same,"liver concentration, change with dose and time",[1]; [4],no significant variations
"CC(=O)OC(C)(C)/C=C/C(=O)[C@](C)(O)[C@H]1[C@H](O)C[C@@]2(C)[C@@H]3CC=C4[C@@H](C=C(O)C(=O)C4(C)C)[C@]3(C)C(=O)C[C@]12C [Cucurbitacin E, cucurbitacin E]",Cmax,"[1]; female, CD-1, mouse, in vivo, po, 8 mg/kg, read-out: Cmax",420 ng/mL
same,Tmax,"[1]; female, CD-1, mouse, in vivo, mice, plasma, oral extract 8 mg/kg, Table S1, unit inferred, read-out: Tmax",2.5 ± 0.3 h
same,AUC(0-t),"[1]; female, CD-1, mouse, in vivo, mice, plasma, oral extract 8 mg/kg, read-out: AUC0−t",1450 ± 110 ng·h/mL
same,AUC,"[1]; female, CD-1, mouse, in vivo, mice, plasma, oral extract 8 mg/kg, read-out: AUC0 ∞",1800 ng·h/mL
same,half-life,"[1]; female, CD-1, mouse, in vivo, mice, plasma, oral extract 8 mg/kg, read-out: T1/2 (converted)",8.4 ± 1.2 h
same,"liver concentration, change with dose and time",[1]; [4],no significant variations
same,Clearance,[1]; [8],10.8 mL/min/kg
same,Vd,[1]; [8],4.8 L/kg
same,"urine concentration, change with dose and time",[1]; [7],clear increase under the 8 mg/kg treatment
same,peak plasma concentration,[3]; at 2 h post-dose,approximately 0.009 µg/mL
O=C1C[C@@H](c2ccc(O)cc2)Oc2cc(O)cc(O)c21 [Naringenin],"liver concentration, change with dose and time","[1]; female, CD-1, mouse, in vivo",significantly decreased after 24–48 h with the 8 mg/kg dose
"O=c1cc(-c2ccc(O)cc2)oc2cc(O[C@@H]3O[C@H](CO)[C@@H](O)[C@H](O)[C@H]3O)cc(O)c12 [apigenin-7-O-β-D-glucoside, reference compound]",AUC0−t,"[2]; rat, in vivo, iv",680 to 1560 ng·h/mL
COc1ccc([C@@H]2CC(=O)c3c(O)cc(O[C@@H]4O[C@H](CO[C@@H]5O[C@@H](C)[C@H](O)[C@@H](O)[C@H]5O)[C@@H](O)[C@H](O)[C@H]4O)cc3O2)cc1O [hesperidin],"urine concentration, change with dose and time",[1]; [7],increased under the 8 mg/kg dose at 6 and 24 h
O=C(CCc1ccc(O)cc1)c1c(O)cc(O)cc1O [Phloretin],"liver concentration, change with dose and time","[1]; female, CD-1, mouse, in vivo",increased significantly with a dose of 125 mg/kg at 6 and 48 h post-treatment
same,"serum concentration, change with dose and time","[1]; female, CD-1, mouse, in vivo",decreased between 6 and 24 h at 125 mg/kg
same,Tmax,"[1]; female, CD-1, mouse, plasma, po, 8 mg/kg, mice, plasma, oral extract 8 mg/kg, Table S1, unit inferred, read-out: Tmax",2 ± 0.4 h
same,half-life,"[1]; female, CD-1, mouse, plasma, po, 8 mg/kg, mice, plasma, oral extract 8 mg/kg, read-out: T1/2 (converted)",4.2 ± 0.6 h
same,Tmax,"[1]; female, CD-1, mouse, plasma, po, 8 mg/kg, mice, plasma, oral extract 8 mg/kg, read-out: Tmax",4.2 h
same,Cmax,"[1]; female, CD-1, mouse, plasma, po, 8 mg/kg, read-out: Cmax",1120 ng/mL
same,AUC(0-t),"[1]; female, CD-1, mouse, mice, plasma, oral extract 8 mg/kg, read-out: AUC0−t",3450 ± 310 ng·h/mL
same,AUC,"[1]; female, CD-1, mouse, mice, plasma, oral extract 8 mg/kg, read-out: AUC0 ∞",6100 ng·h/mL
same,Clearance,[1]; [8],13.7 mL/min/kg
same,Vd,[1]; [8],0.95 L/kg
